From US10709705B2, “Aminopyrimidines as ALK inhibitors” (THE REGENTS OF THE UNIVERSITY OF MICHIGAN, priority 2016, dated 2020)
Read-outs that look alike come from different tables or passages of the source.

Legend:
[1] = molecular target: T1, wild-type human ALK protein (cytoplasmic domain, amino acid 1058-1620) (Homo sapiens, UniProt Q9UM73); experiment: Wild-type ALK kinase inhibition, Lance TR-FRET assay; assay type: biochemical
T1 construct: The cytoplasmic domain (amino acid 1058-1620) of wild-type human ALK protein; purchased Carna Biosciences, Inc (Japan)
Procedure: The cytoplasmic domain (amino acid 1058-1620) of wild-type human ALK protein expressed as N-terminal GST-fusion protein was purchased from Carna Biosciences, Inc (Japan). Mutated ALK proteins were expressed in SF9 insect cells with N-terminal tags cleaved after purification. Kinase activities of all enzymes were assessed using a Lance® TR-FRET assay kit from Perkin Elmer Life Sciences (Waltham, Mass.). 2.5 μL of compound solution and 5 μL of protein solution were added into a black low volume 384 well microtiter plate which was incubated for 30 minutes with gentle shaking at room temperature, followed by adding 2.5 μL of fluorescently labeled peptide substrate (ULight™-IRS-1 (Tyr983) Peptide) and ATP mixture solution. The kinase reaction was performed in 50 mM HEPES (pH 7.5) with 1 mM EGTA, 1 mM MgCl2, and 2 mM DTT, 0.01% Tween-20 added right before the assay. Final concentrations of ATP, substrates, and DMSO were 100 μM, 20 nM, and 0.5%, respectively. […] Final ALK concentrations were 1 nM, 1 nM, InM, 128 nM, 2 nM, and 4 nM for wild-type, F1174L, L1196M, S1206Y, G1269A, and G1202R, respectively. The reaction was allowed to perform for 90 minutes in dark with gentle shaking at room temperature after which 10 μL of 20 mM EDTA and 2 nM Eu-W1024 anti-phosphotyrosine antibody (PT66) mixture solution in the detection buffer from the manufacturer was added to terminate the reaction and detect the phosphorylation of the peptide substrate. The final mixture was incubated in the dark for 1 hour before the plate was read on a Tecan Infinite M-1000 multi-mode plate reader (Tecan, Durham N.C.) with an excitation wavelength of 320 nm. Emission intensities were measured at both 620 and 665 nm with the intensity ratio between 665 and 620 nm corresponding to the peptide substrate phosphorylation. IC50 values of inhibitors were obtained by fitting the ratio of 665/620 nm vs inhibitor concentrations in a sigmoidal dose-response curve (variable slope) with a non-linear regression.

ALK F1197M = molecular target: T2, ALK F1197M (Homo sapiens, UniProt Q9UM73); experiment: Mutant ALK kinase inhibition, F1197M; assay type: biochemical; settings: Table 5
T2 construct: Mutated ALK proteins were expressed in SF9 insect cells with N-terminal tags cleaved after purification; fused on or other part: N-terminal tag, cleaved after purification

ALK G1269A = molecular target: T3, ALK G1269A (Homo sapiens, UniProt Q9UM73, G1269A); experiment: Mutant ALK kinase inhibition, Lance TR-FRET, G1269A; assay type: biochemical; settings: Table 5; ATP 100 μM
T3 construct: made in house; host or cells: SF9 insect cells
Procedure: (§1) The cytoplasmic domain (amino acid 1058-1620) of wild-type human ALK protein expressed as N-terminal GST-fusion protein was purchased from Carna Biosciences, Inc (Japan). Mutated ALK proteins were expressed in SF9 insect cells with N-terminal tags cleaved after purification. Kinase activities of all enzymes were assessed using a Lance® TR-FRET assay kit from Perkin Elmer Life Sciences (Waltham, Mass.). 2.5 μL of compound solution and 5 μL of protein solution were added into a black low volume 384 well microtiter plate which was incubated for 30 minutes with gentle shaking at room temperature, followed by adding 2.5 μL of fluorescently labeled peptide substrate (ULight™-IRS-1 (Tyr983) Peptide) and ATP mixture solution. The kinase reaction was performed in 50 mM HEPES (pH 7.5) with 1 mM EGTA, 1 mM MgCl2, and 2 mM DTT, 0.01% Tween-20 added right before the assay. Final concentrations of ATP, substrates, and DMSO were 100 μM, 20 nM, and 0.5%, respectively. […] The final mixture was incubated in the dark for 1 hour before the plate was read on a Tecan Infinite M-1000 multi-mode plate reader (Tecan, Durham N.C.) with an excitation wavelength of 320 nm. Emission intensities were measured at both 620 and 665 nm with the intensity ratio between 665 and 620 nm corresponding to the peptide substrate phosphorylation. […]

ALK S1206Y = molecular target: T4, ALK S1206Y (Homo sapiens, UniProt Q9UM73, S1206Y); experiment: Mutant ALK kinase inhibition, Lance TR-FRET, S1206Y; assay type: biochemical; settings: Table 5; ATP 100 μM
T4 construct: made in house; host or cells: SF9 insect cells
Procedure: as §1

ALK G1202R = ALK G1202R (Homo sapiens, UniProt Q9UM73, G1202R); experiment: Mutant ALK kinase inhibition, Lance TR-FRET, G1202R; assay type: biochemical
Procedure: Mutated ALK proteins were expressed in SF9 insect cells with N-terminal tags cleaved after purification. […] The kinase reaction was performed in 50 mM HEPES (pH 7.5) with 1 mM EGTA, 1 mM MgCl2, and 2 mM DTT, 0.01% Tween-20 added right before the assay. […] The final mixture was incubated in the dark for 1 hour before the plate was read on a Tecan Infinite M-1000 multi-mode plate reader (Tecan, Durham N.C.) with an excitation wavelength of 320 nm.

FAK = molecular target: T5, FAK (Homo sapiens, UniProt Q05397); experiment: KINOMEscan kinase panel, FAK; assay type: binding
T5 construct: purchased LeadHunter Discovery Services (currently DiscoverX Corporation), KINOMEscan screening service
Description: Cpd. No. 5 was screened for its activity against a panel of human kinases using the KINOMEscan™ screening platform from LeadHunter Discovery Services (currently DiscoverX Corporation (Fremont, Calif. 94538, United States). See Table 7.

[2] = tested on: Human lymphoma cells, KARPAS 299 xenograft; experiment: KARPAS 299 xenograft tumor growth in SCID mice; assay type: in vivo; settings: given orally, once daily for 3 weeks, FIG. 1
Procedure: Cpd. Nos. 5 and 6 were dissolved in a solution of 98% PEG200: 2% TPGS (Sigma).
Human lymphoma cells, KARPAS 299 were maintained at 37° C., 95% air, 5% carbon dioxide in RPMI 1640 medium supplemented with 10% Fetal Bovine Serum, 100 units/ml of penicillin and 100 units/ml of streptomycin (GIBCO™, Invitrogen Corp.) and passaged twice weekly.
Tumor cells for xenografts were washed twice in PBS, and re-suspended in an ice cold mixture of 1:1 PBS and Matrigel (BD Biosciences, Invitrogen Corp.) for a final Matrigel protein concentration of 5 mg/ml. Cells at 5×10^6 cells in 0.1 ml were injected subcutaneously (s.c.) into the flank region of each mouse. All tumors were inoculated into SCID mice (strain:236 C.B-17 SCID, Charles River).
The size of tumors growing in the mice was measured in two dimensions using calipers. Tumor volume (mm^3)=(AxB^2)/2 where A and B are the tumor length and width (in mm), respectively. During treatment, tumor volume and body weight were measured three times a week. After the treatment was stopped, tumor volume and body weight was measured at least once a week.
Tumors were not allowed to exceed 10% of the animal's total body weight. If an animal had two or more tumors the total weight of all tumors were not allowed to exceed 10% of the animal's total body weight. […]

Cc1cc(Nc2ncc(Cl)c(Nc3ccccc3S(=O)(=O)C(C)C)n2)c(OC(C)C)cc1C1=CCN(C2CCOCC2)CC1 [Cpd. No. 5, 5-chloro-N2-(2-isopropoxy-5-methyl-4-(1-(tetrahydro-2H-pyran-4-yl)-1,2,3,6-tetrahydropyridin-4-yl)phenyl)-N4-(2-(isopropylsulfonyl)phenyl)pyrimidine-2,4-diamine]
IC50 ([1]; Table 4, target not given, Cpd. No. 5 value equals WT ALK IC50 of Table 5, read-out: Inhibitory activity): 0.85 nM | IC50 ([1]; Table 5, ATP 100 μM, read-out: IC50 (nM), WT): 0.85 nM | IC50 (ALK F1197M): 3.3 nM | IC50 (ALK G1269A): 4.3 nM | IC50 (ALK S1206Y): 1.3 nM | IC50 (ALK G1202R; Table 5, ATP 100 μM, read-out: IC50 (nM), G1202R): 9.2 nM | IC50 (ALK G1202R; Table 6, comparison with known ALK inhibitors, read-out: G1202R IC50): 9.2 nM | Kd (FAK): 5.4 nM | tumor growth in the KARPAS 299 xenograph model [2]: inhibit tumor growth
